# Data as given in patent US6878736B1, “Histamine H3 receptor ligands” (James Black Foundation Limited, priority 1998, dated 2005).
# Structures can show the parent of a compound that is named as a salt.
# How the values were obtained:
# Histamine H3 receptor [1] = target: T1, Histamine H3 receptor (Cavia porcellus, UniProt Q9JI35); assay: Histamine H3 functional assay, guinea pig ileum (ileal longitudinal muscle, myenteric plexus); design: species or system tissue; settings: antagonist affinity from rightward shift of R-(α)-methylhistamine E/[A] curves (Schild), typical variance ±0.15 log units; for Kb: read-out: pKb (Guinea pig ileum) (converted)
# T1 sequence (Q9JI35 whole entry): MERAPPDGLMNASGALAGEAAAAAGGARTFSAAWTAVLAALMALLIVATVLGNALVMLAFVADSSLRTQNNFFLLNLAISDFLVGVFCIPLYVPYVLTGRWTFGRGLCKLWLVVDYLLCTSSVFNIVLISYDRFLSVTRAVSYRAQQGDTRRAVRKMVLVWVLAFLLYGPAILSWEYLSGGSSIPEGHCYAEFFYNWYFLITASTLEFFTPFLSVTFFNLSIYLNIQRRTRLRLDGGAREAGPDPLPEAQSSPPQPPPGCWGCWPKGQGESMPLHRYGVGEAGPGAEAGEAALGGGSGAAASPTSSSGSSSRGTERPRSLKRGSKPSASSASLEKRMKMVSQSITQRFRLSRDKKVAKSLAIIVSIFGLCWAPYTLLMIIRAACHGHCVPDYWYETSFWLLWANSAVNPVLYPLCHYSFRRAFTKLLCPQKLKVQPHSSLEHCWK
# Description: • 1. J. Med. Chem 1994, 314. • 2. WO 97/29092 Histamine H3 Functional Assay—Guinea Pig Ileum
# The biological activity of the compounds of the examples was measured using the ileal longitudinal muscle, myenteric plexus assay described by Paton and Aboo Zar (J. Physiol. 1968, 194, 13-33). Male Dunkin-Hartley guinea pigs (250-300 g) were employed. Briefly, a 50 cm portion of ileum proximal to the caecum was removed, after discarding the terminal 20 cm. Ileal segments (3 cm) were cleaned by passing Krebs-Henseleit buffer containing 3 μM mepyramine gently through the ileum using a Pasteur pipette (size: 13.8 cm length, 0.65 cm diameter). To avoid unnecessary damage to the tissue, Krebs-Henseleit buffer was passed through the ileal segment, while it was lying horizontally on a petri dish. Therefore, the ileum was not over-distended and the buffer flowed through with ease. Each segment was then passed over a Pasteur pipette and the longitudinal muscle layer and adhering myenteric plexus was teased away using moist cotton wool, by stroking tangentially away from the mesenteric attachment. The tissues were suspended in 20 ml organ baths containing Krebs-Henseleit buffer at 37±1° C. and gassed with […]. The tissues were ligated to two parallel stainless steel wires, situated between two platinum electrodes (0.76 cm length, 0.06 cm diameter). All measurements were recorded isometrically (Grass FTO3 transducer). Following an initial loading tension of 1 g, the tissues were stimulated with electrical pulses at a frequency of 0.1 Hz and a pulse duration of 0.5 msec, as described by Kosterlitz & Watt (Br. J. Pharmacol. 1968, 266276). Initially, the tissues were stimulated at supramaximal (1.3 fold times maximal) voltage for a period of 30 min and then the tissues were washed and re-stimulated. A “sighter dose” of the selective histamine H3-receptor agonist, R-(α)-methylhistamine (0.3 μM) (Arrang et al. Nature, 1987, 117-123), was administered. Upon generation of response, the “sighter dose” was removed from the tissues by “washout” (6 washes over 60 min) and during this period the electrical stimulation was switched off. The tissues were then re-stimulated and allowed to stabilise prior to the addition of drug treatments, which were allocated on a randomised block basis to the organ baths. Following the incubation period, a single cumulative E/[A] curve was obtained. The experimental E/[A] curve data was expressed as the percentage inhibition of the peak height of electrically-stimulated contraction. Antagonist affinity values were calculated from the degree of rightward shift of the R-(α)-methylhistamine E/[A] curves using Schild's methods (Arunlakshana & Schild Br. J. Pharmacol. 1959, 48-58). Typical variance in this assay is ±0.15 log units.
# Histamine H3 receptor [2] = target: T1, Histamine H3 receptor; assay: Histamine H3 radioligand binding assay, guinea pig cortex ([3H]-R-α-methylhistamine); settings: guinea pig cortex membranes, competition with 1 nM [3H]-R-α-methylhistamine; for Ki: read-out: pKi (Guinea pig cortex) (converted)
# Description: The compounds of the invention were also tested in a guinea pig cortex binding assay, as follows:
# Histamine H3 Radioligand Binding Assay—Guinea Pig Cortex
# Male Dunkin Hartley guinea pigs (200-300 g) were used. The whole brain was removed and immediately placed in ice-cold 20 mM Hepes-NaOH buffer (pH7.4 at 21±3° C.). The cortex was dissected, weighed and homogenised in ice-cold 20 mM Hepes-NaOH buffer (pH7.4 at 21±3° C.) (50 ml/guinea-pig cortex) using a polytron (Kinematica AG; PT-DA 3020/2TS, 3×3 s). The homogenate was centrifuged at 100×g for 5 min and the supernatants pooled and stored at 4° C. The pellets were rehomogenised in fresh ice-cold buffer (80 ml) and recentrifuged (100×g for 5 min). The supernatants were pooled and pellets rehomogenised and recentrifuged (100×g for 5 min). All supernatants were pooled and centrifuged at 39,800×g for 12 min at 4° C. The final pellet was resuspended in 20 mM Hepes-NaOH buffer (pH7.4 at 21±3° C.) to a tissue concentration of 7.5 mg.ml^−1, using a teflon-in-glass homogeniser.
# Guinea pig cortex membranes (400 μl) were incubated for 165 min at 21±3° C. in a final volume of 500 μl with 20 mM Hepes-NaOH buffer containing [^3H]-R-α-methylhistamine (50 μl; 1 nM) and competing compound. Total and non-specific binding of [^3H]-R-α-methylhistamine were defined using 50 μl of buffer and 50 μl of 10 μM thioperamide, respectively. The assay was terminated by rapid filtration through Whatman GF/B filters, presoaked (2 hr) in 0.1% polyethyleneimine, using a Brandell Cell Harvester. The filters were washed (3×3 ml) with ice-cold 50 mM Tris-HCl (pH6.9 at 21±3° C.), transferred into scintillation vials, 5 ml liquid scintillation cocktail was added and after 4 hours the bound radioactivity was determined by counting (4 min) in a Beckman liquid scintillation counter.
# Data are analysed using GraphPad prism and the general equation for a competition curve with variable Hill slope (nH). [formula] where • X is the log concentration of competing compound, • Y is the binding obtained at each concentration of X, • pIC50 is the concentration of the competitor required to compete for half of the specific binding.
# The IC50 is converted to the K1 using the Cheng Prusoff equation, K1=IC50/(1+(L/KD)) where • IC50 is the concentration of competitor required to compete for half the specific binding, • L is the radioligand concentration used, • KD is the equilibrium dissociation constant for the radioligand determined by saturation experiments.
Compound,Kb (Histamine H3 receptor [1]),Ki (Histamine H3 receptor [2]),pKb (Guinea pig ileum) (Histamine H3 receptor [1]),pKi (Guinea pig cortex) (Histamine H3 receptor [2]),pKi (Guinea pig cortex) (Histamine H3 receptor [2]; bis-hydrochloride)
"N=C(NCCN1CCCC1)NCc1ccc(Cl)cc1 [Example 16, N-(4-Chlorobenzyl)-N′-(2-pyrrolidin-1-yl-ethyl)-guanidine bis-hydrochloride]",3980 nM,631 nM,–,–,–
N-Adamantan-1-yl-methyl-N′-(4-pyrrolidin-1-yl-butyl)-guanidine bis-hydrochloride [Example 29],–,–,7.7,8.4,–
"COC(=O)c1ccc(CNC(N)=NCCCN2CCCC2)cc1 [Example 14, 4-(N′-(3-Pyrrolidin-1-yl-propyl)-guanidinomethyl)-benzoic acid methyl ester bis-hydrochloride]",1000 nM,25.1 nM,–,–,–
"Cl.Cl.N=C(NCCCCN1CCCC1)NCC1CCCCC1 [Example 40, N-Cyclohexyl-methyl-N′-(4-pyrrolidin-1-yl-butyl)-guanidine bis-hydrochloride]",–,–,7.4,8.4,–
"C[C@H](NC(=N)NCCCCN1CCCC1)C1CCCCC1 [Example 45, N-(1(S)-Cyclohexyl-ethyl)-N′(4-pyrrolidin-1-yl-butyl)-guanidine bis-hydrochloride]",31.6 nM,3.98 nM,–,–,–
"COc1ccc(CNC(=N)NCCCN2CCCC2)cc1Br [Example 7, N-(3-Bromo-4-methoxy-benzyl)-N′-(3-pyrrolidin-1-yl-propyl)-guanidine bis-hydrochloride]",398 nM,39.8 nM,–,–,–
"Cl.Cl.N=C(NCCCCCN1CCCCCCC1)NCC12CC3CC(CC(C3)C1)C2 [Example 62, N-Adamantan-1-yl-methyl-N′-(5-azocan-1-yl-pentyl)-guanidine bis-hydrochloride]",–,–,7.4,7.5,–
"Cl.Cl.N=C(NCCCCCCN1CCCC1)NCC12CC3CC(CC(C3)C1)C2 [Example 31, N-Adamantan-1-yl-methyl-N′-(6-pyrrolidin-1-yl-hexyl)-guanidine bis-hydrochloride]",–,–,8.0,–,8.4
"N=C(NCCCCCN1CCCC1)NCc1ccccc1 [Example 47, N-Benzyl-N′-(5-pyrrolidin-1-yl-pentyl)-guanidine bis-hydrochloride]",50.1 nM,3.98 nM,–,–,–
"N=C(NCCCCN1CCCC1)NCCc1ccc(Cl)cc1 [Example 24, N-(2-(4-Chlorophenyl)ethyl)-N′-(4-pyrrolidin-1-yl-butyl)-guanidine bis-hydrochloride]",631 nM,6.31 nM,–,–,–
"CN1C[C@H](O)C[C@@H]1CCCNS(=O)(=O)NCc1ccc(Cl)cc1 [Example 132, N-(4-Chlorobenzyl)-N′-(3-(4R-hydroxy-1-methyl-pyrrolidin-2S-yl)-propyl)-sulfamide]",–,–,5.8,6.9,–
"Cl.Cl.N=C(NCCCN1CCCC1)NCc1ccc(-c2ccccc2)cc1 [Example 12, N-Biphenyl-4-yl-methyl-N′-(3-pyrrolidin-1-yl-propyl)-guanidine bis-hydrochloride]",–,–,6.3,6.2,–
N-Biphenyl-4-yl-methyl-N′-(5-pyrrolidin-1-yl-pentyl)-guanidine bis-hydrochloride [Example 55],–,–,6.6,7.5,–
"Cl.Cl.N=C(NCCCCCCCN1CCCC1)NCC12CC3CC(CC(C3)C1)C2 [Example 32, N-Adamantan-1-yl-methyl-N′-(7-pyrrolidin-1-yl-heptyl)-guanidine bis-hydrochloride]",–,–,8.0,8.5,–
"N=C(N)N(CCCCN1CCCC1)Cc1ccc(Cl)cc1 [Example 68, N-(4-Chlorobenzyl)-N-(4-pyrrolidin-1-yl-butyl)-guanidine bis-hydrochloride]",50.1 nM,–,–,–,–
"N=C(NCCCN1CCCC1)NCc1ccccc1 [Example 8, N-Benzyl-N′-(3-pyrrolidin-1-yl-propyl)-guanidine bis-hydrochloride]",631 nM,–,–,–,–

# Continued, in another order:
Kb (Histamine H3 receptor [1]),Ki (Histamine H3 receptor [2]),Compound,pKb (Guinea pig ileum) (Histamine H3 receptor [1]),pKi (Guinea pig cortex) (Histamine H3 receptor [2]),pKi (Guinea pig cortex) (Histamine H3 receptor [2]; bis-hydrochloride)
316 nM,7.94 nM,"O=S(=O)(NCCCCN1CCCC1)N(CCCCN1CCCC1)Cc1ccc(Cl)cc1 [Example 140, N-(4-Chlorobenzyl)-N N′-bis(4-pyrrolidin-1-yl-butyl)-sulfamide]",–,–,–
1260 nM,126 nM,"O=S(=O)(NCCN1CCCC1)c1ccc2ccccc2c1 [Example 81, N-(2-Pyrrolidin-1-yl-ethyl)-2-naphthalenesulfonamide]",–,–,–
1580 nM,398 nM,"CN1CCC[C@H]1CCCNS(=O)(=O)Nc1ccc(Cl)cc1 [Example 112, N-(4-Chlorophenyl)-N′-(3-(1-methyl-pyrrolidin-2S-yl)-propyl)-sulfamide]",–,–,–
794 nM,794 nM,"CN1CCC[C@H]1CCCNS(=O)(=O)c1ccc(Cl)cc1 [Example 98, N-(3-(1-Methyl-pyrrolidin-2S-yl)-propyl)-(4-chlorophenyl)-sulfonamide]",–,–,–
398 nM,501 nM,"CN1CCC[C@H]1CCNS(=O)(=O)NCc1ccc(Cl)cc1 [Example 115, N-(4-Chlorobenyl)-N′-(2-(1-methyl-pyrrolidin-2S-yl)-ethyl)-sulfamide]",–,–,–
158 nM,100 nM,"CN1CCC[C@H]1CCCNS(=O)(=O)NCc1ccc(Cl)cc1 [Example 107, N-(4-Chlorobenzyl)-N′-(3-(1-methyl-pyrrolidin-2S-yl)-propyl)-sulfamide]",–,–,–
631 nM,1000 nM,"O=S(=O)(Cc1ccc(Cl)cc1)NCCCN1CCCC1 [Example 106, N-(3-Pyrrolidin-1-yl-propyl)-(4-chlorophenyl)-methanesulfonamide]",–,–,–
501 nM,398 nM,"CN1CCCC1CCCCCNS(=O)(=O)Cc1ccc(Cl)cc1 (stereo not drawn) [Example 105, N-(5-(1-Methyl-pyrrolidin-2S-yl)-pentyl)-(4-chlorophenyl)-methanesulfonamide]",–,–,–
7.94 nM,–,"N=C(N)N(CCCCCCCCN1CCCC1)Cc1ccc(Cl)cc1 [Example 79, N-(4-Chlorobenzyl)-N-(8-pyrrolidin-1-yl-octyl)-guanidine bis-hydrochloride]",–,–,–
10 nM,–,"N=C(N)N(CCCCCCCCCN1CCCC1)Cc1ccc(Cl)cc1 [Example 80, N-(4-Chlorobenzyl)-N-(9-pyrrolidin-1-yl-nonyl)-guanidine bis-hydrochloride]",–,–,–
3.98 nM,–,"N=C(N)N(CCCCCCCN1CCCC1)Cc1ccc(Cl)cc1 [Example 71, N-(4-Chlorobenzyl)-N-(7-pyrrolidin-1-yl-heptyl)-guanidine bis-hydrochloride]",–,–,–
